This assay concerns the target Phospholipase A2 (Homo sapiens, UniProt P04054). The experiment in a line: PLA2 enzyme inhibitors, dose response, counter-screen for ATG4B inhibitor project, biochemical, set 2 (AID 588586). (In general: Counterscreens check selectivity or assay interference.)
Phospholipase A2, sequence (P04054 whole entry): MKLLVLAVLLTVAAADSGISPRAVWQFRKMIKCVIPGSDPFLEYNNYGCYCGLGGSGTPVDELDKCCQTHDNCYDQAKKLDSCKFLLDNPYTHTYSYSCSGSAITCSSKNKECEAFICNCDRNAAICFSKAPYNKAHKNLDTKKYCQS
One may read the IC50 as the concentration that gives 50% inhibition. As for `CC1=CC(/C=N/n2c(COc3ccccc3)nc3ccccc3c2=O)C(=O)C([N+](=O)[O-])=C1` (stereo not drawn) [3-[[(E)-(3-methyl-5-nitro-6-oxocyclohexa-2,4-dien-1-ylidene)methyl]amino]-2-(phenoxymethyl)quinazolin-4-one], the IC50 was found to be 10.5 µM. The compound `Cc1ccc(NC2=NC(=O)C(=Cc3c(C)[nH]c4ccccc34)S2)cc1` [5-[(2-methyl-1H-indol-3-yl)methylene]-2-[(4-methylphenyl)imino]-1,3-thiazolidin-4-one] showed a half-inhibitory concentration (IC50) of 22.3 µM. Take `Oc1ccc2ccccc2c1CN=Nc1nnc(-c2ncc[nH]2)c2ccccc12` [SMR000151639]: half-maximal inhibition (IC50) was put at 2.47 µM.

(Values after BindingDB's records for doi:10.7270/Q2X34VZF (Burnham Center For Chemical Genomics, 2011).)
